Results from PubChem BioAssay (NCI).
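Step 1: Grow cells in 96-well plates. Step 2: Expose to compound for 48 hours at 5 concentrations. Step 3: Interpolate endpoints linearly; if unreached, use highest concentration. Definition used: TGI = concentration required for complete inhibition of growth.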

Assays:
Assay in all cases: growth of human tumour cells (NCI), 48 h
786-0 renal = test system: 786-0 renal
SNB-19 CNS = test system: SNB-19 CNS
DU-145 prostate = test system: DU-145 prostate
NCI-H226 lung = test system: NCI-H226 lung
HL-60(TB) leukemia = test system: HL-60(TB) leukemia
A498 renal = test system: A498 renal
HCC-2998 colon = test system: HCC-2998 colon
T-47D breast = test system: T-47D breast
MCF7 breast = test system: MCF7 breast
LOX IMVI melanoma = test system: LOX IMVI melanoma
HOP-62 NSCLC = test system: HOP-62 NSCLC
SF-539 CNS = test system: SF-539 CNS
OVCAR-8 ovarian = test system: OVCAR-8 ovarian
TK-10 renal = test system: TK-10 renal
MDA-MB-435 = test system: MDA-MB-435
MOLT-4 leukemia = test system: MOLT-4 leukemia
MDA-N = test system: MDA-N
NCI-H460 lung = test system: NCI-H460 lung
OVCAR-3 ovarian = test system: OVCAR-3 ovarian
UO-31 renal = test system: UO-31 renal
RPMI-8226 leukemia = test system: RPMI-8226 leukemia
SW-620 colon = test system: SW-620 colon
NCI-H522 lung = test system: NCI-H522 lung
A549 NSCLC = test system: A549 NSCLC
CCRF-CEM leukemia = test system: CCRF-CEM leukemia
U251 CNS = test system: U251 CNS
HS 578T breast = test system: HS 578T breast
NCI-H23 lung = test system: NCI-H23 lung
HCT-116 colon = test system: HCT-116 colon
PC-3 prostate = test system: PC-3 prostate
COLO 205 colon = test system: COLO 205 colon
HCT-15 colon = test system: HCT-15 colon
HOP-92 NSCLC = test system: HOP-92 NSCLC
KM12 colon = test system: KM12 colon
SK-MEL-5 melanoma = test system: SK-MEL-5 melanoma
UACC-257 melanoma = test system: UACC-257 melanoma
SF-268 CNS = test system: SF-268 CNS
ACHN renal = test system: ACHN renal
MALME-3M melanoma = test system: MALME-3M melanoma
HT29 colon = test system: HT29 colon
SR leukemia = test system: SR leukemia
IGROV1 ovarian = test system: IGROV1 ovarian
UACC-62 melanoma = test system: UACC-62 melanoma
RXF 393 renal = test system: RXF 393 renal
SK-MEL-2 melanoma = test system: SK-MEL-2 melanoma
SNB-75 CNS = test system: SNB-75 CNS
NCI/ADR-RES ovarian = test system: NCI/ADR-RES ovarian
SN12C renal = test system: SN12C renal
OVCAR-4 ovarian = test system: OVCAR-4 ovarian
CAKI-1 renal = test system: CAKI-1 renal
K-562 leukemia = test system: K-562 leukemia
M14 melanoma = test system: M14 melanoma
MDA-MB-231 breast = test system: MDA-MB-231 breast
SF-295 CNS = test system: SF-295 CNS
SK-OV-3 ovarian = test system: SK-OV-3 ovarian
EKVX NSCLC = test system: EKVX NSCLC
SK-MEL-28 melanoma = test system: SK-MEL-28 melanoma
OVCAR-5 ovarian = test system: OVCAR-5 ovarian
BT-549 breast = test system: BT-549 breast

SMILES: Clc1ccc(Cl)c(N=Nc2cc3c4c(c2)CCCN4CCC3)c1
- TGI (786-0 renal): > 10 µM
- TGI (SNB-19 CNS): > 10 µM
- TGI (DU-145 prostate): > 10 µM
- TGI (NCI-H226 lung): > 10 µM
- TGI (HL-60(TB) leukemia): > 10 µM
- TGI (A498 renal): > 10 µM
- TGI (HCC-2998 colon): > 10 µM
- TGI (T-47D breast): > 10 µM
- TGI (MCF7 breast): > 10 µM
- TGI (LOX IMVI melanoma): > 10 µM
- TGI (HOP-62 NSCLC): > 10 µM
- TGI (SF-539 CNS): > 10 µM
- TGI (OVCAR-8 ovarian): > 10 µM
- TGI (TK-10 renal): > 10 µM
- TGI (MDA-MB-435): > 10 µM
- TGI (MOLT-4 leukemia): > 10 µM
- TGI (MDA-N): > 10 µM
- TGI (NCI-H460 lung): > 10 µM
- TGI (OVCAR-3 ovarian): > 10 µM
- TGI (UO-31 renal): > 10 µM
- TGI (RPMI-8226 leukemia): > 10 µM
- TGI (SW-620 colon): > 10 µM
- TGI (NCI-H522 lung): > 10 µM
- TGI (A549 NSCLC): > 10 µM
- TGI (CCRF-CEM leukemia): > 10 µM
- TGI (U251 CNS): > 10 µM
- TGI (HS 578T breast): > 10 µM
- TGI (NCI-H23 lung): > 10 µM
- TGI (HCT-116 colon): > 10 µM
- TGI (PC-3 prostate): > 10 µM
- TGI (COLO 205 colon): > 10 µM
- TGI (HCT-15 colon): > 10 µM
- TGI (HOP-92 NSCLC): > 10 µM
- TGI (KM12 colon): > 10 µM
- TGI (SK-MEL-5 melanoma): > 10 µM
- TGI (UACC-257 melanoma): > 10 µM
- TGI (SF-268 CNS): > 10 µM
- TGI (ACHN renal): > 10 µM
- TGI (MALME-3M melanoma): > 10 µM
- TGI (HT29 colon): > 10 µM
- TGI (SR leukemia): > 10 µM
- TGI (IGROV1 ovarian): > 10 µM
- TGI (UACC-62 melanoma): > 10 µM
- TGI (RXF 393 renal): > 10 µM
- TGI (SK-MEL-2 melanoma): > 10 µM
- TGI (SNB-75 CNS): > 10 µM
- TGI (NCI/ADR-RES ovarian): > 10 µM
- TGI (SN12C renal): > 10 µM
- TGI (OVCAR-4 ovarian): > 10 µM
- TGI (CAKI-1 renal): > 10 µM
- TGI (K-562 leukemia): > 10 µM
- TGI (M14 melanoma): > 10 µM
- TGI (MDA-MB-231 breast): > 10 µM
- TGI (SF-295 CNS): > 10 µM
- TGI (SK-OV-3 ovarian): > 10 µM
- TGI (EKVX NSCLC): > 10 µM
- TGI (SK-MEL-28 melanoma): > 10 µM

SMILES: C=CCNC(=O)NNC(O)(C(=O)OCC)C(F)(F)F (centres undefined)
- TGI (786-0 renal): > 100 µM
- TGI (SNB-19 CNS): > 100 µM
- TGI (DU-145 prostate): > 100 µM
- TGI (NCI-H226 lung): > 100 µM
- TGI (HL-60(TB) leukemia): > 100 µM
- TGI (A498 renal): > 100 µM
- TGI (HCC-2998 colon): > 100 µM
- TGI (T-47D breast): > 100 µM
- TGI (MCF7 breast): > 100 µM
- TGI (LOX IMVI melanoma): > 100 µM
- TGI (HOP-62 NSCLC): > 100 µM
- TGI (SF-539 CNS): > 100 µM
- TGI (OVCAR-8 ovarian): > 100 µM
- TGI (TK-10 renal): > 100 µM
- TGI (MDA-MB-435): > 100 µM
- TGI (MOLT-4 leukemia): > 100 µM
- TGI (MDA-N): > 100 µM
- TGI (OVCAR-5 ovarian): > 100 µM
- TGI (NCI-H460 lung): > 100 µM
- TGI (OVCAR-3 ovarian): > 100 µM
- TGI (UO-31 renal): > 100 µM
- TGI (RPMI-8226 leukemia): > 100 µM
- TGI (SW-620 colon): > 100 µM
- TGI (NCI-H522 lung): > 100 µM
- TGI (A549 NSCLC): > 100 µM
- TGI (CCRF-CEM leukemia): > 100 µM
- TGI (U251 CNS): > 100 µM
- TGI (HS 578T breast): > 100 µM
- TGI (NCI-H23 lung): > 100 µM
- TGI (HCT-116 colon): > 100 µM
- TGI (PC-3 prostate): > 100 µM
- TGI (COLO 205 colon): > 100 µM
- TGI (HCT-15 colon): > 100 µM
- TGI (HOP-92 NSCLC): > 100 µM
- TGI (KM12 colon): > 100 µM
- TGI (SK-MEL-5 melanoma): > 100 µM
- TGI (UACC-257 melanoma): > 100 µM
- TGI (SF-268 CNS): > 100 µM
- TGI (ACHN renal): > 100 µM
- TGI (MALME-3M melanoma): > 100 µM
- TGI (HT29 colon): > 100 µM
- TGI (SR leukemia): > 100 µM
- TGI (IGROV1 ovarian): > 100 µM
- TGI (RXF 393 renal): > 100 µM
- TGI (SK-MEL-2 melanoma): > 100 µM
- TGI (SNB-75 CNS): > 100 µM
- TGI (NCI/ADR-RES ovarian): > 100 µM
- TGI (SN12C renal): > 100 µM
- TGI (OVCAR-4 ovarian): > 100 µM
- TGI (CAKI-1 renal): > 100 µM
- TGI (K-562 leukemia): > 100 µM
- TGI (M14 melanoma): > 100 µM
- TGI (MDA-MB-231 breast): > 100 µM
- TGI (SK-OV-3 ovarian): > 100 µM
- TGI (EKVX NSCLC): > 100 µM
- TGI (SK-MEL-28 melanoma): > 100 µM

SMILES: COc1c(-c2ccccc2)oc2c(CP(=O)(OC)OC)cccc2c1=O
- TGI (786-0 renal): > 100 µM
- TGI (DU-145 prostate): > 100 µM
- TGI (A498 renal): > 100 µM
- TGI (HCC-2998 colon): > 100 µM
- TGI (T-47D breast): > 100 µM
- TGI (MCF7 breast): > 100 µM
- TGI (HOP-62 NSCLC): > 100 µM
- TGI (SF-539 CNS): > 100 µM
- TGI (TK-10 renal): > 100 µM
- TGI (MDA-MB-435): > 100 µM
- TGI (MOLT-4 leukemia): > 100 µM
- TGI (MDA-N): > 100 µM
- TGI (OVCAR-5 ovarian): > 100 µM
- TGI (OVCAR-3 ovarian): > 100 µM
- TGI (UO-31 renal): 41.9 µM
- TGI (RPMI-8226 leukemia): 53.8 µM
- TGI (NCI-H522 lung): > 100 µM
- TGI (A549 NSCLC): > 100 µM
- TGI (CCRF-CEM leukemia): > 100 µM
- TGI (U251 CNS): > 100 µM
- TGI (NCI-H23 lung): > 100 µM
- TGI (HCT-116 colon): > 100 µM
- TGI (PC-3 prostate): > 100 µM
- TGI (COLO 205 colon): > 100 µM
- TGI (SK-MEL-5 melanoma): > 100 µM
- TGI (UACC-257 melanoma): > 100 µM
- TGI (BT-549 breast): > 100 µM
- TGI (MALME-3M melanoma): > 100 µM
- TGI (SR leukemia): > 100 µM
- TGI (IGROV1 ovarian): > 100 µM
- TGI (UACC-62 melanoma): > 100 µM
- TGI (RXF 393 renal): > 100 µM
- TGI (SK-MEL-2 melanoma): > 100 µM
- TGI (SN12C renal): > 100 µM
- TGI (CAKI-1 renal): 5.11 µM
- TGI (K-562 leukemia): > 100 µM
- TGI (M14 melanoma): > 100 µM
- TGI (MDA-MB-231 breast): > 100 µM
- TGI (SF-295 CNS): > 100 µM
- TGI (SK-OV-3 ovarian): > 100 µM
- TGI (EKVX NSCLC): > 100 µM
